The subject of the assay is db/db mice. In words: Weekly fasting blood glucose in db/db mice given oral FTY720. The assay is classed as in vivo, mouse. The method, then: FIG. 2A. Time course of the fasting glucose levels of db/db mice with or without oral FTY720. Open circle (∘), FTY720-untreated group; solid circle (●), pre-diabetic db/db mice (Fasting glucose<126 mg/dL) at six-week-old treated with 10 mg/kg FTY720; and triangle (▴), diabetic db/db mice (Fasting glucose≅430 mg/dL) at nine-week-old treated with 10 mg/kg FTY720 (n=4). I, Fasting glucose of mice at the age of 6 weeks to 12 weeks at the daily dosage of 10 mg/kg FTY720 (n=20 for the control and FTY720 treated pre-diabetic mice, respectively); II, fasting glucose levels of mice at the age of 12 weeks to 20 weeks at the daily dosage of 10 mg/kg FTY720 (n=6 for the control and FTY720 treated mice, respectively); III, fasting glucose levels of mice at the age of 20 weeks to 29 weeks at the […] dosage of 10 mg/kg FTY720 (n=2 for control and FTY720 treated mice, respectively); IV, fasting glucose levels from the mouse without FTY720 treatment after age of 29 weeks (n=2 for control and FTY720 treated mice, respectively).
Animals and Procedures—Five-week-old female db/db mice (BKS.Cg-m+/−Leprdb) were purchased from Jackson Laboratories (Bar Harbor, Me.). Mice were housed under controlled light (12 h light/12 h dark) and temperature conditions, and had free access to food (normal rodent chow) and water. All procedures were conducted in accordance with the guidelines on Animal Care and were approved by the Institutional Animal Care and Use Committee (IACUC) of Mount Sinai School of Medicine. After 1 week, the fasting glucose levels of the 6-week-old mice were measured. Mice with normal glucose levels (<126 mg/dl) were randomly divided into control and FTY720 treatment groups. Mice in the FTY720-treated group were fed 10 mg/kg of FTY720 daily by feeding tube and their food intake and body weight were measured twice a week. Fasting glucose levels were measured at the end of each week. At 12 weeks of age (when the mice had been treated for 6 weeks), all mice were subjected to metabolic analysis. After metabolic analysis, the pancreases were removed from the mice at 13 and 16 weeks of age for immunohistochemical analysis, quantitation of islet area, or islet isolation.
To rigorously determine the effects of FTY720 in vivo, pre-diabetic (age of six weeks, fasting glucose<126 mg/dL) and diabetic (age of 8-9 weeks, fasting glucose=430 mg/dL) female db/db mice were fed daily with FTY720 (+FTY720) for 29 weeks, and monitored by weekly fasting blood glucose measurements.

SMILES strings stand for the structures.

Results on one molecule are retold here after US8653026B2, “Treatment of type 2 diabetes with FTY720” (Diapin Therapeutics LLC, priority 2011, dated 2014).

Regarding `CCCCCCCCc1ccc(CCC(N)(CO)CO)cc1` [FTY720, 2-amino-2-[2-(4-octylphenyl)ethyl]propane-1,3-diol], for the setting “all FTY720-treated db/db mice, after 6 weeks treatment”, the “distribution of fasting glucose levels” value was “normalized”. Besides, where the note is “db/db mice, administration ceased completely after 29-weeks treatment”, the “fasting glucose levels after FTY720 administration was ceased” value is “well controlled”. Further, the fasting glucose levels entry reads like this: (diabetic db/db mice (glucose ≧350 mg/dL), after six weeks of oral FTY720 10 mg/kg) “became normal”; (pre-diabetic db/db mice (six weeks old, fasting glucose <126 mg/dL), 10 mg/kg FTY720 oral daily, untreated about 500 mg/dL by age 12 weeks) about 126 mg/dL. Where the note is “i.p. injected into or orally administrated to db/db mice”, the “fasting glucose levels (screen)” value was “capable of normalizing”.
